The text below walks through data of patent US7511145B2 (Genelabs Technologies, Inc., priority 2003, dated 2009).

This assay concerns the target T1, HCV-NS5b (Hepatitis C virus genotype 1b, UniProt Q9WMX2).
T1 construct: (His)6 (C); made in house; host or cells: XL-1 cells (E. coli), IPTG-inducible plasmid, nickel-NTA purification
The assay is described as follows: HCV-NS5b enzyme assay (incorporation of radiolabeled UTP). The format is biochemical. The following applies: for inhibition at 33 µM: enzyme inhibition at compound concentration of 33 uM; for inhibition at 100 µM: read-out: % inh@100, enzyme inhibition at compound concentration of 100 uM. The gist of the method: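 Percent inhibition, background-corrected against uninhibited control, was measured at 100 and 33 uM compound. Incorporation of [3H]-UTP (10 μM each NTP) into biotinylated HCV-template RNA, 37° C for 2 h, pH 7.5, scintillation proximity. Enzyme: C-terminally truncated (21 aa), His6-tagged NS5b from XL-1.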

Each structure is given as a SMILES string.

Regarding `O=C1COc2ccc(-c3ccc4cc(-c5nc6cc(C(=O)O)ccc6n5C5CCCCC5)ccc4n3)cc2N1` [Compound 465, 1-cyclohexyl-2-[2-(3-oxo-3,4-dihydro-2H-benzo[1,4]oxazin-6-yl)-quinolin-6-yl]-1H-benzoimidazole-5-carboxylic acid], the inhibition at 33 µM was 98.8% and the inhibition at 100 µM is 101%.
For `NNc1cc(-c2ccccc2)nc2ccc(-c3nc4cc(C(=O)O)ccc4n3C3CCCCC3)cc12` [Compound 466, 1-Cyclohexyl-2-(4-hydrazino-2-phenyl-quinolin-6-yl)-1H-benzoimidazole-5-carboxylic acid], in that order: 92.9% and 100%.
With `O=C(O)c1ccc2c(c1)nc(-c1ccc3nc(-c4ccccc4)cc(Sc4ccccc4)c3c1)n2C1CCCCC1` [Compound 467, 1-Cyclohexyl-2-(2-phenyl-4-phenylsulfanyl-quinolin-6-yl)-1H-benzoimidazole-5-carboxylic acid], the inhibition at 33 µM is 96.3% and the inhibition at 100 µM worked out at 100%.
For `COc1ccc(-c2ccc(OC)cc2-c2ccc3cc(-c4nc5cc(C(=O)O)ccc5n4C4CCCCC4)ccc3n2)cc1` [Compound 468, 1-cyclohexyl-2-[2-(4,4′-dimethoxy-biphen-2-yl)-quinolin-6-yl]-1H-benzoimidazole-5-carboxylic acid], in that order: 99.3% and 99.1%.
Taken in the same sequence, the figures for `COc1ccc(-c2ccc(O)cc2)c(-c2ccc3cc(-c4nc5cc(C(=O)O)ccc5n4C4CCCCC4)ccc3n2)c1` [Compound 469, 1-cyclohexyl-2-[2-(4′-hydroxy-4-methoxy-biphen-2-yl)-quinolin-6-yl]-1H-benzoimidazole-5-carboxylic acid] were 94.2% and 98.2%.
Taken in the same sequence, the figures for `COc1ccc(-c2cccs2)c(-c2ccc3cc(-c4nc5cc(C(=O)O)ccc5n4C4CCCCC4)ccc3n2)c1` [Compound 470, 1-cyclohexyl-2-[2-(5-methoxy-2-thiophen-2-yl-phenyl)-quinolin-6-yl]-1H-benzoimidazole-5-carboxylic acid] were 101% and 99.4%.
For `Cc1cc(-c2ccccc2Br)nc2ccc(-c3nc4cc(C(=O)O)ccc4n3C3CCCCC3)cc12` [Compound 471, 2-[2-(2-Bromo-phenyl)-4-methyl-quinolin-6-yl]-1-cyclohexyl-1H-benzoimidazole-5-carboxylic acid], the inhibition at 33 µM was 97.8% and the inhibition at 100 µM turned out to be 99.8%.
Regarding `Cc1cc(-c2ccc3cc(-c4nc5cc(C(=O)O)ccc5n4C4CCCCC4)ccc3n2)c(-c2ccccc2)s1` [Compound 472, 1-cyclohexyl-2-[2-(5-methyl-2-phenyl-thiophen-3-yl)-quinolin-6-yl]-1H-benzoimidazole-5-carboxylic acid], the inhibition at 33 µM was found to be 97.1% and the inhibition at 100 µM amounted to 98.1%.
As to `O=C(O)c1ccc2c(c1)nc(-c1ccc3nc(-c4ccc(-n5ccnc5)cc4)ccc3c1)n2C1CCCCC1` [Compound 473, 1-cyclohexyl-2-[2-(4-imidazol-1-yl-phenyl)-quinolin-6-yl]-1H-benzoimidazole-5-carboxylic acid], the inhibition at 33 µM amounted to 99.2% and the inhibition at 100 µM stood at 97.4%.
Taken in the same sequence, the figures for `O=C(O)c1ccc2c(c1)nc(-c1ccc3nc(-c4cccc(O)c4)ccc3c1)n2C1CCCCC1` [Compound 474, 1-Cyclohexyl-2-[2-(3-hydroxy-phenyl)-quinolin-6-yl]-1H-benzoimidazole-5-carboxylic acid] were 97% and 101%.
For `COCCOc1ccc(-c2ccc(Cl)cc2)c(-c2ccc3cc(-c4nc5cc(C(=O)O)ccc5n4C4CCCCC4)ccc3n2)c1` [Compound 475, 2-{2-[4′-Chloro-4-(2-methoxy-ethoxy)-biphen-2-yl]-quinolin-6-yl}-1-cyclohexyl-1H-benzoimidazole-5-carboxylic acid], in that order: 97.5% and 95.9%.
`O=C(O)c1ccc2c(c1)nc(-c1ccc3nc(CCn4cccn4)ccc3c1)n2C1CCCCC1` [Compound 476, 1-cyclohexyl-2-[2-(2-pyrazol-1-yl-ethyl)-quinolin-6-yl]-1H-benzoimidazole-5-carboxylic acid]: the inhibition at 33 µM turned out to be 97.3% and the inhibition at 100 µM was found to be 97.1%.
As for `O=C(O)c1cnc2c(c1)nc(-c1ccc3nc(-c4ccccc4Br)ccc3c1)n2C1CCCCC1` [Compound 477, 2-[2-(2-bromo-phenyl)-quinolin-6-yl]-3-cyclohexyl-3H-imidazo[4,5-b]pyridine-6-carboxylic acid], the inhibition at 33 µM was found to be 92.4% and the inhibition at 100 µM came out at 95.9%.
For `O=C(O)c1ccc2c(c1)nc(-c1ccc3nc(-c4ccc5c(c4)CCO5)ccc3c1)n2C1CCCCC1` [Compound 478, 1-cyclohexyl-2-[2-(2,3-dihydro-benzofuran-5-yl)-quinolin-6-yl]-1H-benzoimidazole-5-carboxylic acid], in that order: 95.8% and 97.2%.
For `O=C(O)c1ccc2c(c1)nc(-c1ccc3nc(-c4cc(-c5ccc(Cl)c(Cl)c5)no4)ccc3c1)n2C1CCCCC1` [Compound 479, 1-cyclohexyl-2-{2-[3-(3,4-dichloro-phenyl)-isoxazol-5-yl]-quinolin-6-yl}-1H-benzoimidazole-5-carboxylic acid], in that order: 99.6% and 102%.
For `Nc1cc(-c2ccccc2)sc1-c1ccc2cc(-c3nc4cc(C(=O)O)ccc4n3C3CCCCC3)ccc2n1` [Compound 480, 2-[2-(3-amino-5-phenyl-thiophen-2-yl)-quinolin-6-yl]-1-cyclohexyl-1H-benzoimidazole-5-carboxylic acid], in that order: 101% and 104%.
With `CN(C)c1cc(-c2ccccc2)nc2ccc(-c3nc4cc(C(=O)O)ccc4n3C3CCCCC3)cc12` [Compound 481, 1-cyclohexyl-2-(4-dimethylamino-2-phenyl-quinolin-6-yl)-1H-benzoimidazole-5-carboxylic acid], the inhibition at 33 µM amounted to 76.5% and the inhibition at 100 µM was 96.7%.
Taken in the same sequence, the figures for `O=C(O)c1ccc2c(c1)nc(-c1ccc3nc(-c4cccc(Br)c4)ccc3c1)n2C1CCCCC1` [Compound 482, 2-[2-(3-bromo-phenyl)-quinolin-6-yl]-1-cyclohexyl-1H-benzoimidazole-5-carboxylic acid] were 100% and 101%.
Taken in the same sequence, the figures for `O=C(O)c1ccc2c(c1)nc(-c1ccc3nc(-c4cccc(-c5ccc(Cl)cc5)c4)ccc3c1)n2C1CCCCC1` [Compound 483, 2-[2-(4′-chloro-biphenyl-3-yl)-quinolin-6-yl]-1-cyclohexyl-1H-benzoimidazole-5-carboxylic acid] were 102% and 99.4%.
Take `COc1ccc(-c2cnc(OC)nc2OC)c(-c2ccc3cc(-c4nc5cc(C(=O)O)ccc5n4C4CCCCC4)ccc3n2)c1` [Compound 484, 1-cyclohexyl-2-{2-[2-(2,4-dimethoxy-pyrimidin-5-yl)-5-methoxy-phenyl]-quinolin-6-yl}-1H-benzoimidazole-5-carboxylic acid]: the inhibition at 33 µM came to 99.6% and the inhibition at 100 µM was 98.3%.
Regarding `Cc1cc(-c2ccccc2-c2ccc(Cl)cc2)nc2ccc(-c3nc4cc(C(=O)O)ccc4n3C3CCCCC3)cc12` [Compound 485, 2-[2-(4′-Chloro-biphen-2-yl)-4-methyl-quinolin-6-yl]-1-cyclohexyl-1H-benzoimidazole-5-carboxylic acid], the inhibition at 33 µM amounted to 98.6% and the inhibition at 100 µM turned out to be 99.5%.
Taken in the same sequence, the figures for `COc1cccc(-c2ccc3cc(-c4nc5cc(C(=O)O)ccc5n4C4CCCCC4)ccc3n2)c1` [Compound 486, 1-Cyclohexyl-2-[2-(3-methoxy-phenyl)-quinolin-6-yl]-1H-benzoimidazole-5-carboxylic acid] were 93.5% and 97.9%.
For `O=C(O)c1ccc2c(c1)nc(-c1ccc3nc(-c4cc(O)ccc4-c4ccccc4)ccc3c1)n2C1CCCCC1` [Compound 487, 1-Cyclohexyl-2-[2-(4-hydroxy-biphen-2-yl)-quinolin-6-yl]-1H-benzoimidazole-5-carboxylic acid], in that order: 102% and 101%.
With `O=C(O)c1ccc2c(c1)nc(-c1ccc3nc(-c4ccc(N5CCNCC5)cc4)ccc3c1)n2C1CCCCC1` [Compound 488, 1-cyclohexyl-2-[2-(4-piperazin-1-yl-phenyl)-quinolin-6-yl]-1H-benzoimidazole-5-carboxylic acid], the inhibition at 33 µM came to 91.8% and the inhibition at 100 µM worked out at 97.2%.
Taken in the same sequence, the figures for `CCCN(CCC)Cc1ccc2cc(-c3nc4cc(C(=O)O)ccc4n3C3CCCCC3)ccc2n1` [Compound 489, 1-cyclohexyl-2-(2-dipropylaminomethyl-quinolin-6-yl)-1H-benzoimidazole-5-carboxylic acid] were 87% and 96%.
For `O=C(O)c1cnc2c(c1)nc(-c1ccc3nc(-c4ccccc4-c4ccc(Cl)cc4)ccc3c1)n2C1CCCCC1` [Compound 490, 2-[2-(4′-chloro-biphen-2-yl)-quinolin-6-yl]-3-cyclohexyl-3H-imidazo[4,5-b]pyridine-6-carboxylic acid], the inhibition at 33 µM stood at 95.9% and the inhibition at 100 µM worked out at 94.3%.
Turning to `CN(C)CCNC(=O)c1ccc(-c2ccc(Cl)cc2)c(-c2ccc3cc(-c4nc5cc(C(=O)O)ccc5n4C4CCCCC4)ccc3n2)c1` [Compound 491, 2-{2-[4′-Chloro-4-(2-dimethylamino-ethylcarbamoyl)-biphen-2-yl]-quinolin-6-yl}-1-cyclohexyl-1H-benzoimidazole-5-carboxylic acid], the inhibition at 33 µM worked out at 98.3% and the inhibition at 100 µM was 100%.
